Laboratory results reported in patent US20120142730A1 (priority 2010, published 2012).

Legend:
[1] = test system: subjects with relapsing remitting multiple sclerosis (RRMS); assay: ALLEGRO (MS-LAQ-301) phase III trial: confirmed relapse endpoints; type: in vivo, human; parameters: key to Annualized relapse rate, adjusted mean (SE): ARR = number of relapses divided by total patient exposure; conditions: for Annualized relapse rate, adjusted mean (SE): 24-month treatment period
Description: The primary endpoint of the study was the number of confirmed relapses during the double-blind treatment period, which corresponds to the annualized relapse rate (ARR—number of relapses divided by total exposure of all patients). Secondary endpoints included disability as measured by Expanded Disability Status Scale (EDSS) changes confirmed at 3 months, and cumulative number of gadolinium enhancing (GdE) and new/enlarging T2 MRI lesions. Eligible subjects were equally randomized 1:1 into one of the following treatment arms: • 1. […] 21, 2007 (see, page 10, line 5 to page 11, line 3). • 2. Matching placebo for laquinimod arm: one capsule is administered once daily. The primary endpoint was the number of confirmed relapses during the double-blind study period. A relapse was defined as the appearance of one or more new neurological abnormalities or the reappearance of one or more previously observed neurological abnormalities lasting for at least 48 hours and after an improved neurological state for at least 30 days. An event was counted as a relapse if the subject's symptoms were accompanied by observed objective neurological changes consistent with at least one of the following: an increase of at least 0.5 in the EDSS score; an increase of one grade in two or more of the seven functional systems; or an increase of two grades in one functional system. Standardized treatment of relapses was intravenous methylprednisolone 1 g/day for up to five consecutive days based on the treating neurologist's decision. The analysis of the total number of confirmed relapses during the study period is based on baseline adjusted Quasi-Likelihood (over-dispersed) Poisson Regression. Using the Poisson regression with the treatment group as a covariate, the ARR of each group was calculated for the intent-to-treat (ITT) cohort as the total number of confirmed relapses for all patients in each group divided by the total patient years in that group. In addition to the treatment group, the following covariates were included: baseline EDSS score, log of the (prior 2-year number of relapses +1) and country or geographical region.

[2] = test system: subjects with relapsing remitting multiple sclerosis (RRMS); assay: ALLEGRO phase III trial: safety and tolerability; type: in vivo, human
Protocol: Eligible subjects were equally randomized 1:1 into one of the following treatment arms: • 1. […] 21, 2007 (see, page 10, line 5 to page 11, line 3). • 2. Matching placebo for laquinimod arm: one capsule is administered once daily.
The following assessments were performed at specified time points: • 1. Vital signs were measured at each study visit. • 2. A physical examination is performed at months −1 (screening), (baseline) 1, 3, 6, 12, 18 and 24 (termination/early discontinuation core study). In case of the 6 months extended study, additional examination was performed at month 30 (termination/early discontinuation of extended study). • 3. The following safety clinical laboratory tests were performed: • a. Complete blood count (CBC) with differential—at all scheduled visits. A reticulocyte count was added to the CBC at months 0 (baseline) and 24/30 (termination/early discontinuation). • b. Serum chemistry (including electrolytes, liver enzymes, direct and total bilirubin and pancreatic amylase and CPK), and urinalysis—at all scheduled visits. • c. A rapid urine β-hCG test was performed in women of child-bearing potential at baseline (month 0) and at each scheduled study visit thereafter (at site). • d. β-hCG in women of child-bearing potential was performed at all scheduled visits. • e. Starting after visit Month 3 a rapid urine β-hCG test was performed in women of child-bearing potential every 28 (±2) days. […] Adverse Events (AEs) are monitored throughout the study. • 9. Concomitant medications are monitored throughout the study. • 10. […] MS functional Composite (MSFC) was assessed at months −1 (screening) (three practices for training purposes only), at month 0 (baseline), 6, 12, 18 and 24 (termination/early discontinuation). […] Subject-reported fatigue was assessed by the Modified Fatigue Impact Scale (MFIS) at months 0, 6, 12, 18, and 24 (termination/early discontinuation). […] The general health status was assessed by the EuroQoL (EQ5D) questionnaire at month 0 (baseline) and month 24 (termination/early discontinuation of the study). […]

[3] = 0.6 mg daily oral vs placebo, 24 months
[4] = post-hoc, vs placebo, listed as laquinimod

## CCN(C(=O)c1c(O)c2c(Cl)cccc2n(C)c1=O)c1ccccc1 [Laquinimod, laquinimod]
[1]; 0.6 mg daily oral vs placebo
  Annualized rate of relapses requiring hospitalization and/or IV steroids, reduction: 27% reduction
  Increase in the time to first relapse: 28.2%
  Time to 1st confirmed relapse: reduction for the risk of 1st confirmed relapse: 28% reduction for the
[1]; [3]
  Annualized relapse rate, reduction: 23% reduction
  Increase in odds to be relapse free: 55% increase odds to
[1]; 0.6 mg daily oral vs placebo, 24 months, listed as laquinimod
  Increase in odds to be relapse free: 55%
[1]; 0.6 mg daily oral
  Annualized relapse rate, adjusted mean (SE): 0.304
[1]; 0.6 mg daily oral, listed as laquinimod
  Annualized relapse rate, adjusted mean (SE): 0.304±0.022
[1]; 0.6 mg daily oral, 24 months
  Annualized rate of relapses requiring hospitalization and/or IV steroids, adjusted mean: 0.242
  Relapse-free during study, adjusted proportion: 62.90%
[1]; 0.6 mg daily oral, 24 months, listed as laquinimod
  Relapse-free during study, adjusted proportion: 62.9%
[1]; post-hoc, 0.6 mg daily oral
  ARR 1st year: 0.343
  ARR for dropouts: 0.640
  Annualized rate of relapses requiring IV steroids: 0.263
  Annualized rate of relapses requiring hospitalization: 0.071
  Relapses with full recovery (EDSS before and after attack): 0.155
  Relapses with no recovery (EDSS before and after attack): 0.06
  Unconfirmed relapses: 0.094
[1]; post-hoc, relapse duration >34 days (n~100)
  ARR by median relapse duration: 0.964
[1]; post-hoc, relapse duration >34 days (n~100), vs placebo
  ARR by median relapse duration, reduction: 1.3% reduction
[1]; post-hoc, relapse duration ≦34 days
  ARR by median relapse duration: 0.153
[1]; post-hoc, relapse duration ≦34 days, vs placebo
  ARR by median relapse duration, reduction: 37% reduction
[1]; post-hoc, vs placebo
  ARR 1st year, reduction: 24% reduction
  ARR for dropouts, reduction: 26% reduction
  Relapses requiring IV steroids, reduction: 27% reduction
  Relapses requiring hospitalization, reduction: 38% reduction
  Relapses with full recovery, reduction: 13% reduction
  Relapses with no recovery, reduction: 24% reduction
  Unconfirmed relapses, reduction: 17% reduction
[1]; [4]
  Relapses requiring IV steroids, reduction: 27%
  Relapses requiring hospitalization, reduction: 38%
[2]; 0.6 mg daily oral, 24 months
  Deaths: No deaths
[2]; human, in vivo
  Time of occurrence of ALT elevations up to 5×ULN: ≤ 6 months
[2]; in vivo
  Reversibility of ALT elevations up to 5×ULN: all were reversible
